The values that follow come from patent US12077555B2, “STAT degraders and uses thereof” (Kymera Therapeutics, Inc., priority 2019, dated 2024).

Sequence of STAT3 (P40763 whole entry): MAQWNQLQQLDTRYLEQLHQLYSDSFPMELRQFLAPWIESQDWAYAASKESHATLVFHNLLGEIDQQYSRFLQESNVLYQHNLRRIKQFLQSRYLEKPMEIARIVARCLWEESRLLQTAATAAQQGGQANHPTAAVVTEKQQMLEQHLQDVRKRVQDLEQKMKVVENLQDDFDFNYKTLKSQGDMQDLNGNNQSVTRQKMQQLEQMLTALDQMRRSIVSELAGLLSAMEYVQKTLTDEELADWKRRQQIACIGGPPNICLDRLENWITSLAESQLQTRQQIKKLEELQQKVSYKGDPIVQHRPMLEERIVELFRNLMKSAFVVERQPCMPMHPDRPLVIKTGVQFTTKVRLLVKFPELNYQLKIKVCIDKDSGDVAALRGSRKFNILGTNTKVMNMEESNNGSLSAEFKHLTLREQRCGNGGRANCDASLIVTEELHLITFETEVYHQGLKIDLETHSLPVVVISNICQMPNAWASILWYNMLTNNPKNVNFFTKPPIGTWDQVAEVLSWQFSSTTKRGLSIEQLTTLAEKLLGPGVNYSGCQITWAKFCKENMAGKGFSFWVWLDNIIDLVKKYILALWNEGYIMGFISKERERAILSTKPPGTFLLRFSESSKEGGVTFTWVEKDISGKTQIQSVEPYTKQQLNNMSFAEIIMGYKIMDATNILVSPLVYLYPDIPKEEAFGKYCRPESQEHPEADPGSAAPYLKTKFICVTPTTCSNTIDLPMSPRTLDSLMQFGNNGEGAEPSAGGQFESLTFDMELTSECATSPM

The test has as its target STAT3 (Homo sapiens, UniProt P40763). Nature of the test: STAT3 HiBiT degradation assay in transfected A549 cells. Type of test: cell-based. Details: expressed in transfected cells; host or cells: A549. The conditions noted are these: A549, 24 h; read-out: STAT3 HiBiT A549 degradation 24 h: Average external-Abs DC50. An outline of the steps: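 Transfected A549 cells (~2000/well) plated 24 h, then treated 24 h at 37 °C, 5% CO2 with a 3-fold, 10-point compound dilution. HiBiT lytic luminescence read after 10 min at room temperature; remaining STAT3 normalized to negative and positive controls, four-parameter fit. DC50 binned A <0.01, B 0.01–0.1, C 0.1–1.0, D >1.0 µM.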
As a reminder, the DC50 is the concentration at which degradation of the target reaches its halfway point. In the case of `C[C@@H](OCc1ccccc1)[C@H](CCC(N)=O)NC(=O)[C@@H]1CC[C@@H]2CCN(C(=O)CCCCCCc3ccc4c(c3)n(C)c(=O)n4C3CCC(=O)NC3=O)C[C@H](NC(=O)c3cc4cc(C(=O)P(=O)(O)O)ccc4[nH]3)C(=O)N21` (stereo partly drawn) [Compound I-184, 2-[[(5S8S,10aR)-8-[[(3S,4R)-4-(benzyloxy)-1-carbamoylpentan-3-yl]carbamoyl]-3-[7-[1-(2,6-dioxopiperidin-3-yl)-3-methyl-2-oxo-1,3-benzodiazol-5-yl]heptanoyl]-6-oxo-octahydropyrrolo[1,2-a][1,5]diazocin-5-yl]carbamoyl]-1H-indole-5-carbonylphosphonic acid], the DC50 lay within 100 to 1000 nM.
In the case of `Cc1ncsc1-c1ccc(C2(NC(=O)[C@@H]3C[C@@H](O)CN3C(=O)[C@@H](NC(=O)CCCCCc3cccc(OC[C@H](CCC(N)=O)NC(=O)[C@@H]4Cc5cccc6c5N4C(=O)[C@@H](NC(=O)c4cc5cc(C(=O)P(=O)(O)O)ccc5[nH]4)CC6)c3)C(C)(C)C)CC2)cc1` [Compound I-206, diammonium 2-[[(2S,11S)-2-[[(2S)-4-carbamoyl-1-[3-(5-[[(2S)-1-[(2S,4R)-4-hydroxy-2-([1-[4-[4-methyl-1,3-thiazo1-5-yl)phenyl]cyclopropyl]carbamoyl)pyrrolidin-1-yl]-3,3-dimethyl-1-oxobutan-2-yl]carbamoyl]pentyl)phenoxy]butan-2-yl]carbamoyl]-12-oxo-1-azatricyclo[6.4.1.0^[4,13]]trideca-4(13),5,7-trien-11-yl]carbamoyl]-1H-indole-5-carbonylphosphonate], the DC50 fell in the range of 10 to 100 nM.
As for `Cc1ncsc1-c1ccc([C@H](C)NC(=O)[C@@H]2C[C@@H](O)CN2C(=O)[C@@H](NC(=O)CCCCc2ccc(CO[C@H](C)[C@H](CCC(N)=O)NC(=O)[C@@H]3Cc4cccc5c4N3C(=O)[C@@H](NC(=O)c3cc4cc(C(=O)O)ccc4[nH]3)CC5)cc2)C(C)(C)C)cc1` [Compound I-131, Ammonium 2-[[(2S,11S)-2-[[(3S,4R)-1-carbamoyl-4-[[4-(4-[[(2S)-1-[(2S,4R)-4-hydroxy-2-[[(1S)-1-[4-(4-methyl-1,3-thiazol-5 yl)phenyl]ethyl]carbamoyl]pyrrolidin-1-yl]-3,3-dimethyl-1-oxobutan-2-yl]carbamoyl]butyl)phenyl]methoxy]pentan-3-yl]carbamoyl]-12-oxo-1-azatricyclo[6.4.1.0^[4,13]]trideca-4(13),5,7-trien-11-yl]carbamoyl]-1H-indole-5-carboxylate], the figure is > 1000 nM; as for `Cc1ncsc1-c1ccc(CNC(=O)[C@@H]2C[C@@H](O)CN2C(=O)[C@@H](NC(=O)CCCc2ccc3cc(CO[C@H](C)[C@H](CCC(N)=O)NC(=O)[C@@H]4Cc5cccc6c5N4C(=O)[C@@H](NC(=O)c4cc5cc(C(=O)P(=O)(O)O)ccc5[nH]4)CC6)ccc3c2)C(C)(C)C)cc1` [Compound I-127, diammonium 2-[[(2S,11S)-2-[[(3S,4R)-1-carbamoyl-4-[[6-(3-[[(2S)-1-[(2S,4R)-4-hydroxy-2-([[4-(4-methyl-1,3-thiazol-5-yl)phenyl]methyl]carbamoyl)pyrrolidin-1-yl]-3,3-dimethyl-1-oxobutan-2-yl]carbamoyl]propyl)naphthalen-2-yl]methoxy]pentan-3-yl]carbamoyl]-12-oxo-1-azatricyclo[6.4.1.0^[4,13]]trideca-4(13),5,7-trien-11-yl]carbamoyl]-1H-indole-5-carbonylphosphonate], 100 to 1000 nM; as for `Cc1ncsc1-c1ccc([C@H](C)NC(=O)[C@@H]2C[C@@H](O)CN2C(=O)[C@@H](NC(=O)CCCCCc2cc(Cl)cc(OC[C@H](CCC(N)=O)NC(=O)[C@@H]3Cc4cccc5c4N3C(=O)[C@@H](NC(=O)c3cc4cc(C(=O)P(=O)(O)O)ccc4[nH]3)CC5)c2F)C(C)(C)C)cc1` [Compound I-244, 2-[[(2S,11S)-2-[[(2S)-4-carbamoyl-1-[5-chloro-2-fluoro-3-(5-[[(2S)-1-[(2S,4R)-4-hydroxy-2-[[(1S)-1-[4-(4-methyl-1,3-thiazol-5-yl)phenyl]ethyl]carbamoyl]pyrrolidin-1-yl]-3,3-dimethyl-1-oxobutan-2-yl]carbamoyl]pentyl)phenoxy]butan-2-yl]carbamoyl]-12-oxo-1-azatricyclo[6.4.1.0^[4,13]]trideca-4(13),5,7-trien-11-yl]carbamoyl]-1H-indole-5-carbonylphosphonic acid], < 10 nM.
On to `Cn1c(=O)n(C2CCC(=O)NC2=O)c2ccc(N3CCC(CCCC(=O)N4CC[C@H]5CC[C@@H](C(=O)N[C@@H](CCC(N)=O)C(=O)NC(c6ccccc6)c6ccccc6)N5C(=O)[C@@H](NC(=O)c5cc6cc(C(=O)P(=O)(O)O)ccc6[nH]5)C4)CC3)cc21` (stereo partly drawn) [Compound I-128, 2-[[(5S,8S,10aR)-8-[[(1S)-3-carbamoyl-1-(diphenylmethylcarbamoyl)propyl]carbamoyl]-3-(4-[1-[1-(2,6-dioxopiperidin-3-yl)-3-methyl-2-oxo-1,3-benzodiazol-5-yl]piperidin-4-yl]butanoyl)-6-oxo-octahydropyrrolo[1,2-a][1,5]diazocin-5-yl]carbamoyl]-1H-indole-5-carbonylphosphonic acid], for which the DC50 lay within 100 to 1000 nM.
The figure for `Cc1ncsc1-c1ccc([C@H](C)NC(=O)[C@@H]2C[C@@H](O)CN2C(=O)[C@@H](NC(=O)CCCCCc2cccc(O[C@H](C)[C@H](CCC(N)=O)NC(=O)[C@@H]3Cc4cccc5c4N3C(=O)[C@@H](NC(=O)c3cc4cc(C(=O)P(=O)(O)O)ccc4[nH]3)CC5)c2)C(C)(C)C)cc1` [Compound I-219, 2-[[(2S,11S)-2-[[(3S,4R)-1-carbamoyl-4-[3-(5-[[(2S)-1-[(2S,4R)-4-hydroxy-2-[[(1S)-1-[4-(4-methyl-1,3-thiazol-5-yl)phenyl]ethyl]carbamoyl]pyrrolidin-1-yl]-3,3-dimethyl-1-oxobutan-2-yl]carbamoyl]pentyl)phenoxy]pentan-3-yl]carbamoyl]-12-oxo-1-azatricyclo[6.4.1.0^[4,13]]trideca-4(13),5,7-trien-11-yl]carbamoyl]-1H-indole-5-carbonylphosphonic acid] is 100 to 1000 nM; for `Cn1c(=O)n(C2CCC(=O)NC2=O)c2ccc(C3CC(CCCC(=O)N4CC[C@H]5CC[C@@H](C(=O)N[C@@H](CCC(N)=O)C(=O)NC(c6ccccc6)c6ccccc6)N5C(=O)[C@@H](NC(=O)c5cc6cc(C(=O)P(=O)(O)O)ccc6[nH]5)C4)C3)cc21` (stereo partly drawn) [Compound I-228, 2-[[(5S,8S,10aR)-8-[[(1S)-3-carbamoyl-1-(diphenylmethylcarbamoyl)propyl]carbamoyl]-3-(4-[3-[1-(2,6-dioxopiperidin-3-yl)-3-methyl-2-oxo-1,3-benzodiazol-5-yl]cyclobutyl]butanoyl)-6-oxo-octahydropyrrolo[1,2-a][1,5]diazocin-5-yl]carbamoyl]-1H-indole-5-carbonylphosphonic acid] it is 100 to 1000 nM.
For `CN1C(=O)CCC(n2c(=O)n(C)c3cc(CCCCCCC(=O)N4CC[C@H]5CC[C@@H](C(=O)N[C@@H](CCC(N)=O)C(=O)NC(c6ccccc6)c6ccccc6)N5C(=O)[C@@H](NC(=O)c5cc6cc(C(=O)P(=O)(O)O)ccc6[nH]5)C4)ccc32)C1=O` (stereo partly drawn) [Compound I-150, 2-[[(5S,8S,10aR)-8-[[(1S)-3-carbamoyl-1-(diphenylmethylcarbamoyl)propyl]carbamoyl]-3-[7-[3-methyl-1-(1-methyl-2,6-dioxopiperidin-3-yl)-2-oxo-1,3-benzodiazol-5-yl]heptanoyl]-6-oxo-octahydropyrrolo[1,2-a][1,5]diazocin-5-yl]carbamoyl]-1H-indole-5-carbonylphosphonic acid], the DC50 was > 1000 nM.
With `Cn1c(=O)n(C2CCC(=O)NC2=O)c2ccc(CC3CCC(CC(=O)N4CC[C@H]5CC[C@@H](C(=O)N[C@H](CCC(N)=O)C(=O)NCc6ccc(S(C)(=O)=O)cc6)N5C(=O)[C@@H](NC(=O)c5cc6cc(C(=O)P(=O)(O)O)ccc6[nH]5)C4)CC3)cc21` (stereo partly drawn) [Compound I-230, 2-[[(5S,8S,10aR)-8-[[(1R)-3-carbamoyl-1-[[(4-methanesulfonylphenyl)methyl]carbamoyl]propyl]carbamoyl]-6-oxo-3-[2-[(1S,4S)-4-[[1-(2,6-dioxopiperidin-3-yl)-3-methyl-2-oxo-1,3-benzodiazol-5-yl]methyl]cyclohexyl]acetyl]-octahydropyrrolo[1,2-a][1,5]diazocin-5-yl]carbamoyl]-1H-indole-5-carbonylphosphonic acid], the DC50 is > 1000 nM.
Consider `Cn1c(=O)n(C2CCC(=O)NC2=O)c2ccc(CCCCCCC(=O)N3CC[C@H]4CC[C@@H](C(=O)N[C@@H](CCC(N)=O)C(=O)NCc5ccc(S(C)(=O)=O)cc5)N4C(=O)[C@@H](NC(=O)c4cc5cc(C(=O)P(=O)(O)O)ccc5[nH]4)C3)cc21` (stereo partly drawn) [Compound I-288, 2-[[(5S,8S,10aR)-8-[[(1S)-3-carbamoyl-1-[[(4-methanesulfonylphenyl)methyl]carbamoyl]propyl]carbamoyl]-3-[7-[1-(2,6-dioxopiperidin-3-yl)-3-methyl-2-oxo-1,3-benzodiazol-5-yl]heptanoyl]-6-oxo-octahydropyrrolo[1,2-a][1,5]diazocin-5-yl]carbamoyl]-1H-indole-5-carbonylphosphonic acid], for which the DC50 was 10 to 100 nM.
The figure for `Cn1c(=O)n(C2CCC(=O)NC2=O)c2ccc(CC3CCN(CC(=O)N4CC[C@H]5CC[C@@H](C(=O)N[C@@H](CCC(N)=O)C(=O)NC(c6ccccc6)c6ccccc6)N5C(=O)[C@@H](NC(=O)c5cc6cc(C(=O)P(=O)(O)O)ccc6[nH]5)C4)CC3)cc21` (stereo partly drawn) [Compound I-158, 2-[[(5S,8S,10aR)-8-[[(1S)-3-carbamoyl-1-(diphenylmethylcarbamoyl)propyl]carbamoyl]-3-[2-(4-[[1-(2,6-dioxopiperidin-3-yl)-3-methyl-2-oxo-1,3-benzodiazol-5-yl]methyl]piperidin-1-yl)acetyl]-6-oxo-octahydropyrrolo[1,2-a][1,5]diazocin-5-yl]carbamoyl]-1H-indole-5-carbonylphosphonic acid] is > 1000 nM.
